In this assay the test system is LPS-induced TNF-α release in peripheral blood mononuclear cells (PBMCs). In words: In vitro determination of PDE4 inhibitory activity in the PBMCs assay (LPS-induced TNF-α release). It counts as cell-based, human. Particulars: PBMC; human PBMCs, LPS 3 ng/ml, 18 hours, TNF-α by ELISA; read-out: PDE4 inhibition (IC50, 50% inhibition of LPS-induced TNF-α release). The method, then: The assay, which is based on the known inhibitory activity exerted by PDE4 inhibitors on the lipopolyshaccarides (LPS)-induced tumour necrosis factor-alpha (TNF-α release in peripheral blood mononuclear cells (PBMCs), was performed according to a method previously described (Hatzelmann A et al., J. Pharmacol. Exp. Ther., 2001; 297:267-279; and Draheim R et al., J. Pharmacol. Exp. Ther., 2004; 308:555-563, which are incorporated herein by reference in their entireties). Cryopreserved human PBMCs, (100 l/well) were incubated in 96-well plates (10^5 cells/well), for 30 minutes, in the presence or absence (50 microl) of the test compounds whose concentrations ranged from 10^−12 M to 10^−6 M or from […] to 10^−7 M. Subsequently, LPS (3 ng/ml) was added.
After 18 hours of incubation at 37° C. in a humidified incubator under an atmosphere of 95% air and 5% CO2, culture medium was collected and TNF-α measured by ELISA. The results of the tested compounds, representatives of the invention, expressed as mean±95% confidence limits of the molar concentration of the test compound producing 50% inhibition of LPS-induced TNF-α release (IC50) are shown in the following Table: […]
(In general: ELISA stands for enzyme-linked immunosorbent assay.)

Bounds are passed on as bounds.

Turning to `O=C(O[C@@H](Cc1c(Cl)c[n+]([O-])cc1Cl)c1ccc(OC(F)F)c(OCC2CC2)c1)C1SCCN1S(=O)(=O)c1ccc(F)cc1F` (stereo partly drawn) [Compound 67, 3,5-dichloro-4-((2S)-2-(3-(cyclopropylmethoxy)-4-(difluoromethoxy)phenyl)-2-(3-(2,4-difluorophenylsulfonyl)thiazolidine-2-carbonyloxy)ethyl)pyridine 1-oxide], the IC50 (in general, the midpoint of a concentration-inhibition curve) lay within 0.1 to 1 nM. For `CC(=O)c1cccc(S(=O)(=O)N2CCS[C@H]2C(=O)O[C@@H](Cc2c(Cl)c[n+]([O-])cc2Cl)c2ccc(OC(F)F)c(OCC3CC3)c2)c1` [Compound 117, 4-((S)-2-((S)-3-(3-acetylphenylsulfonyl)thiazolidine-2-carbonyloxy)-2-(3-(cyclopropylmethoxy)-4-(difluoromethoxy)phenyl)ethyl)-3,5-dichloropyridine 1-oxide] the value was 0.1 to 1 nM; for `O=C(O[C@@H](Cc1c(Cl)c[n+]([O-])cc1Cl)c1ccc(OC(F)F)c(OCC2CC2)c1)C1SCCN1S(=O)(=O)c1ccccc1` (stereo partly drawn) [Compound 57, 3,5-dichloro-4-((2S)-2-(3-(cyclopropylmethoxy)-4-(difluoromethoxy)phenyl)-2-(3-(phenylsulfonyl)thiazolidine-2-carbonyloxy)ethyl)pyridine 1-oxide], 0.1 to 1 nM; for `CN(C)C(=O)c1cccc(S(=O)(=O)N2CCCC[C@@H]2C(=O)O[C@@H](Cc2c(Cl)c[n+]([O-])cc2Cl)c2ccc(OC(F)F)c(OCC3CC3)c2)c1` [Compound 83, 3,5-dichloro-4-((S)-2-(3-(cyclopropylmethoxy)-4-(difluoromethoxy)phenyl)-2-((R)-1-(3-(dimethylcarbamoyl)phenylsulfonyl)piperidine-2-carbonyloxy)ethyl)pyridine 1-oxide], below 0.1 nM. For `Cn1ccnc1S(=O)(=O)N1CCS[C@H]1C(=O)O[C@@H](Cc1c(Cl)c[n+]([O-])cc1Cl)c1ccc(OC(F)F)c(OCC2CC2)c1` [Compound 90, 3,5-dichloro-4-((S)-2-(3-(cyclopropylmethoxy)-4-(difluoromethoxy)phenyl)-2-((S)-3-(1-methyl-1H-imidazol-2-ylsulfonyl)thiazolidine-2-carbonyloxy)ethyl)pyridine 1-oxide] the value was below 0.1 nM; for `O=C1NC(=O)c2cc(S(=O)(=O)N3CCSC3C(=O)O[C@@H](Cc3c(Cl)c[n+]([O-])cc3Cl)c3ccc(OC(F)F)c(OCC4CC4)c3)ccc21` (stereo partly drawn) [Compound 58, 3,5-dichloro-4-((2S)-2-(3-(cyclopropylmethoxy)-4-(difluoromethoxy)phenyl)-2-(3-(1,3-dioxoisoindolin-5-ylsulfonyl)thiazolidine-2-carbonyloxy)ethyl)pyridine 1-oxide], 0.1 to 1 nM; for `Cc1noc(C)c1S(=O)(=O)N1CCSC1C(=O)O[C@@H](Cc1c(Cl)c[n+]([O-])cc1Cl)c1ccc(OC(F)F)c(OCC2CC2)c1` (stereo partly drawn) [Compound 76, 3,5-dichloro-4-((2S)-2-(3-(cyclopropylmethoxy)-4-(difluoromethoxy)phenyl)-2-(3-(3,5-dimethylisoxazol-4-ylsulfonyl)thiazolidine-2-carbonyloxy)ethyl)pyridine 1-oxide], 0.1 to 1 nM. For `CNC(=O)c1cc(S(=O)(=O)N2CCS[C@H]2C(=O)O[C@@H](Cc2c(Cl)c[n+]([O-])cc2Cl)c2ccc(OC(F)F)c(OCC3CC3)c2)cn1C` [Compound 241, 3,5-dichloro-4-((S)-2-(3-(cyclopropylmethoxy)-4-(difluoromethoxy)phenyl)-2-((S)-3-(1-methyl-5-(methylcarbamoyl)-1H-pyrrol-3-ylsulfonyl)thiazolidine-2-carbonyloxy)ethyl)pyridine 1-oxide] the value was below 0.1 nM. For `O=C(O[C@@H](Cc1c(Cl)c[n+]([O-])cc1Cl)c1ccc(OC(F)F)c(OCC2CC2)c1)[C@@H]1SCCN1C(=O)c1ccc(CN2CCOCC2)cc1` [Compound 39, 3,5-dichloro-4-((S)-2-(3-(cyclopropylmethoxy)-4-(difluoromethoxy)phenyl)-2-((S)-3-(4-(morpholinomethyl)benzoyl)thiazolidine-2-carbonyloxy)ethyl)pyridine 1-oxide], the IC50 lay within 0.1 to 1 nM.

For `CN1CCN(C(=O)c2ccc(S(=O)(=O)N3CCSC3C(=O)O[C@@H](Cc3c(Cl)c[n+]([O-])cc3Cl)c3ccc(OC(F)F)c(OCC4CC4)c3)cc2)CC1` (stereo partly drawn) [Compound 126, 3,5-dichloro-4-((2S)-2-(3-(cyclopropylmethoxy)-4-(difluoromethoxy)phenyl)-2-(3-(4-(4-methylpiperazine-1-carbonyl)phenylsulfonyl)thiazolidine-2-carbonyloxy)ethyl)pyridine 1-oxide], the concentration for half-maximal inhibition (IC50) lay in the range of 0.1 to 1 nM. On to `COc1ccc(C(=O)N2CCSC2C(=O)O[C@@H](Cc2c(Cl)c[n+]([O-])cc2Cl)c2ccc(OC(F)F)c(OCC3CC3)c2)cc1S(=O)(=O)N(C)C` (stereo partly drawn) [Compound 32, 3,5-dichloro-4-((2S)-2-(3-(cyclopropylmethoxy)-4-(difluoromethoxy)phenyl)-2-(3-(3-(N,N-dimethylsulfamoyl)-4-methoxybenzoyl)thiazolidine-2-carbonyloxy)ethyl)pyridine 1-oxide], for which the concentration for half-maximal inhibition (IC50) lay within 0.1 to 1 nM. For `O=C(O[C@@H](Cc1c(Cl)c[n+]([O-])cc1Cl)c1ccc(OC(F)F)c(OCC2CC2)c1)C1SCCN1S(=O)(=O)c1cccnc1` (stereo partly drawn) [Compound 66, 3,5-dichloro-4-((2S)-2-(3-(cyclopropylmethoxy)-4-(difluoromethoxy)phenyl)-2-(3-(pyridin-3-ylsulfonyl)thiazolidine-2-carbonyloxy)ethyl)pyridine 1-oxide] the value was below 0.1 nM; for `COC(=O)c1cc(CN2CCCC2C(=O)O[C@@H](Cc2c(Cl)c[n+]([O-])cc2Cl)c2ccc(OC(F)F)c(OCC3CC3)c2)oc1C` (stereo partly drawn) [Compound 15, 3,5-dichloro-4-((2S)-2-(3-(cyclopropylmethoxy)-4-(difluoromethoxy)phenyl)-2-(1-((4-(methoxycarbonyl)-5-methylfuran-2-yl)methyl)pyrrolidine-2-carbonyloxy)ethyl)pyridine 1-oxide], 1 to 10 nM.

Regarding `O=C(O[C@@H](Cc1c(Cl)c[n+]([O-])cc1Cl)c1ccc(OC(F)F)c(OCC2CC2)c1)C1SCCN1C(=O)c1cncs1` (stereo partly drawn) [Compound 38, 3,5-dichloro-4-((2S)-2-(3-(cyclopropylmethoxy)-4-(difluoromethoxy)phenyl)-2-(3-(thiazole-5-carbonyl)thiazolidine-2-carbonyloxy)ethyl)pyridine 1-oxide], the IC50 is below 0.1 nM. `NC(=O)Nc1cccc(S(=O)(=O)N2CCS[C@H]2C(=O)O[C@@H](Cc2c(Cl)c[n+]([O-])cc2Cl)c2ccc(OC(F)F)c(OCC3CC3)c2)c1` [Compound 269, 3,5-dichloro-4-((S)-2-(3-(cyclopropylmethoxy)-4-(difluoromethoxy)phenyl)-2-((S)-3-(3-ureidophenylsulfonyl)thiazolidine-2-carbonyloxy)ethyl)pyridine 1-oxide]: the IC50 is below 0.1 nM. Take `COc1ccc(S(=O)(=O)N2CCC[C@H]2C(=O)O[C@@H](Cc2c(Cl)c[n+]([O-])cc2Cl)c2ccc(OC(F)F)c(OCC3CC3)c2)cc1OC` [Compound 53, 3,5-dichloro-4-((S)-2-(3-(cyclopropylmethoxy)-4-(difluoromethoxy)phenyl)-2-((S)-1-(3,4-dimethoxyphenylsulfonyl)pyrrolidine-2-carbonyloxy)ethyl)pyridine 1-oxide]: the 50% inhibitory concentration (IC50) lay in the range of 0.1 to 1 nM. Regarding `O=C(O[C@@H](Cc1c(Cl)c[n+]([O-])cc1Cl)c1ccc(OC(F)F)c(OCC2CC2)c1)[C@@H]1SCCN1S(=O)(=O)c1cccnc1` [Compound 88, 3,5-dichloro-4-((S)-2-(3-(cyclopropylmethoxy)-4-(difluoromethoxy)phenyl)-2-((S)-3-(pyridin-3-ylsulfonyl)thiazolidine-2-carbonyloxy)ethyl)pyridine 1-oxide], the half-inhibitory concentration (IC50) is below 0.1 nM. For `CN(C)C(=O)c1cccc(CS(=O)(=O)N2CCS[C@H]2C(=O)O[C@@H](Cc2c(Cl)c[n+]([O-])cc2Cl)c2ccc(OC(F)F)c(OCC3CC3)c2)c1` [Compound 295, 3,5-dichloro-4-((S)-2-(3-(cyclopropylmethoxy)-4-(difluoro-methoxy)phenyl)-2-((S)-3-(3-(dimethylcarbamoyl)benzylsulfonyl)-thiazolidine-2-carbonyloxy)ethyl)pyridine 1-oxide] the value was 0.1 to 1 nM; for `COc1ccc(S(=O)(=O)N2CCSC2C(=O)O[C@@H](Cc2c(Cl)c[n+]([O-])cc2Cl)c2ccc(OC(F)F)c(OCC3CC3)c2)cc1OC` (stereo partly drawn) [Compound 73, 3,5-dichloro-4-((2S)-2-(3-(cyclopropylmethoxy)-4-(difluoromethoxy)phenyl)-2-(3-(3,4-dimethoxyphenylsulfonyl)thiazolidine-2-carbonyloxy)ethyl)pyridine 1-oxide], below 0.1 nM; for `O=C(O[C@@H](Cc1c(Cl)c[n+]([O-])cc1Cl)c1ccc(OC(F)F)c(OCC2CC2)c1)[C@H]1CCCN1S(=O)(=O)c1ccccc1` [Compound 244, 3,5-dichloro-4-((S)-2-(3-(cyclopropylmethoxy)-4-(difluoromethoxy)phenyl)-2-((R)-1-(phenylsulfonyl)pyrrolidine-2-carbonyloxy)ethyl)pyridine 1-oxide], 1 to 10 nM.

For the origin of these results see patent publication US9931327B2, “Derivatives of 1-phenyl-2-pyridinyl alkyl alcohols as phosphodiesterase inhibitors” (Chiesi Farmaceutici S.p.A., priority 2011, dated 2018).
